The values below come from US20040137582A1, “Methods for manufacturing polysaccharide derivatives” (priority 2002, published 2004).

Data set [1] concerns human skin fibroblasts. The data set is described as follows: Extraction assay, mitochondrial metabolic activity (MTT). The settings on record: 24 h.
Description: Cell culture. Primary human skin fibroblasts were grown in DMEM complete medium, at 37° C. in a fully humidified air containing 5% CO2 (IR auto Flow). The cells were fed every 2 to 3 days. When cells reached confluence, the culture medium was discarded and the cells washed with 5 mL of 10 mM phosphate buffered saline (PBS) pH 7.4 (Gibco). The cells were then detached with 2 mL of 0.05% (w/v) trypsin (1:250, from porcine pancreas (Sigma)) solution (PBS supplemented with 0.1% and 0.25% of α-D(+) glucose and EDTA, respectively) for 5 min at 37° C., and 3 mL of DMEM complete medium was added to inactivate the trypsin after cell detachment. The cells were centrifuged (10 min, 2500 rpm) and resuspended in culture medium before use. Cultures between the 3rd and 7th passages were used in the entire work.
All solutions were prepared on the day of application.
Extraction assay. The extraction assay was performed in two sets of hydrogels. […] In the second set the hydrogels obtained after the polymerization reaction were immersed in 10 mL of 10 mM citrate-phosphate pH 7.0 and immediately autoclaved. Extracts were obtained by immersing autoclaved hydrogels in DMEM (without phenol red) culture medium supplemented with 1% of fungizone and 0.5% of gentamicin, at 37° C., for 5 days with agitation (120 rpm). The ratio between the surface area of the material and the volume of extraction medium was 3 cm^2/mL. Following incubation the medium containing the extract was collected, filtered (0.22 μm; to eliminate the possible presence of solid particles of the material) and supplemented with 10% of serum. Human skin fibroblasts were plated in 96-well plates (TPP, Switzerland) and grown to subconfluency. The culture medium was removed and replaced with the extract media for 24 h at 37° C. Phenol (64 g/L, BDH) which is considered cytotoxic^17, was used as a positive control. Culture medium without extracts, incubated as described above, was used as a negative control. Following incubation the extracts were discarded and the mitochondrial metabolic activity of the cells was measured with the MTT assay.
Mitochondrial metabolic activity assay. For 96-well plates, the cell layers were rinsed with PBS (110 μL) and 110 μL of MTT (0.45 mg/mL in DMEM complete medium w/o phenol red) was added to each well. For 6-well plates, after PBS washing (1 mL), 2.5 mL of MTT solution was added. After 3 h incubation at 37° C., the MTT solution was removed and the insoluble formazan crystals formed in the bottom of the wells were dissolved in 100 μL or 1 mL of DMSO, for 96 and 6-well plates respectively. The absorbance was measured at 540 nm using a plate reader (STL Spectra III, Austria).
Data set [2] relates to human skin fibroblasts. Kind of data set: Cell proliferation inhibition index (CPII) assay: direct contact assay. The settings on record: 72 h.
Description: Cell proliferation inhibition index (CPII) assay: direct contact assay. […] Since each well has a surface area of 0.31 cm^2, the final seeding density was ca. 5×10^3 cells/cm^2. After 4 h (the cells were adherent to the well bottom), the culture medium was discarded and 200 μL of each test solution was added to each well. For the control culture, the medium was refreshed. Seventy-two hours after the addition of test solutions, the extracts were discarded and the cell layer was washed with PBS to remove remaining materials and loose cells. The metabolic activity of the cells was then measured with the MTT test (see below). The CPII was calculated using eq. 6: [formula]
To evaluate the CPII for dexT70-VA hydrogels (extracted for 3 days in water at 25° C. and then sterilized by autoclave), 3 mL of a fibroblast suspension containing 1.5×10^4 cells/mL was plated into each well of a 6-well plate, to yield a final density of 5×10^3 cells/cm^2. After 4 h, the culture medium was refreshed (3 mL) and the hydrogels were added to the wells, in direct contact with cells (FIG. 1A). For the control culture, the culture medium was refreshed. After 72 h of incubation, the metabolic activity of the cells was assessed as previously described and the CPII calculated according to eq.6.
Mitochondrial metabolic activity assay. […] The absorbance was measured at 540 nm using a plate reader (STL Spectra III, Austria).

In the case of `N.N.O=S(=O)(O)OOS(=O)(=O)O` [APS, ammonium persulfate], in the data set with human skin fibroblasts [1] (concentrations above 2.5 μL/mL), the “effect on MMAF” value is “significant (P<0.001) decrease in MMAF”. For the same compound, the CPII result with human skin fibroblasts [2] (all concentrations) is listed as “ca. 90%”.
As for `CN(C)CCN(C)C` [TEMED, N,N,N′,N′-tetramethylenediamine], the “effect on MMAF” value in the data set with human skin fibroblasts [1] (concentrations above 2.5 μL/mL) is “significant (P<0.001) decrease in MMAF”. In the data set on human skin fibroblasts [2] (above 2.5 μL/mL), the CPII entry was “the same phenomenon was observed”.
Turning to Dextran [reference compound], the “increase in the MMAF” value in the data set with human skin fibroblasts [1] (solution 10 mg/mL) is “ca. 20%”. Also, the “effect on MMAF” value in the data set on human skin fibroblasts [1] (solution 20-100 mg/mL) is “not significant”.
